Experiment [1] addresses JAK1 (recombinant purified GST-tagged catalytic domain) (Homo sapiens (Human), UniProt P23458). Briefly: Jak Biochemical HTRF Assay (JAK1). The conditions noted are these: [ATP] 31.8 μM. A digest of the protocol: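 Compounds in DMSO were pre-equilibrated with enzyme and biotinylated peptide, then ATP was added and the reaction proceeded 120 min at room temperature. EDTA-based stop buffer with detection reagents was added, and after 60 min the time-resolved FRET ratio was read. IC50s came from 4-parameter dose–response fits.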
On the technique in general: Time-resolved FRET reads energy transfer from a long-lived donor to a nearby acceptor.

Experiment [2] has as its target JAK2 (recombinant purified GST-tagged catalytic domain) (Homo sapiens (Human), UniProt O60674). Briefly: Jak Biochemical HTRF Assay (JAK2). The conditions noted are these: [ATP] 8.5 μM.

Molecules are shown by their SMILES.

Among the data in patent US9957264B2 (Merck Sharp & Dohme Corp., priority 2013, dated 2018) are IC50 values, retold here.

JAK1 (recombinant purified GST-tagged catalytic domain), sequence (P23458 875-1153): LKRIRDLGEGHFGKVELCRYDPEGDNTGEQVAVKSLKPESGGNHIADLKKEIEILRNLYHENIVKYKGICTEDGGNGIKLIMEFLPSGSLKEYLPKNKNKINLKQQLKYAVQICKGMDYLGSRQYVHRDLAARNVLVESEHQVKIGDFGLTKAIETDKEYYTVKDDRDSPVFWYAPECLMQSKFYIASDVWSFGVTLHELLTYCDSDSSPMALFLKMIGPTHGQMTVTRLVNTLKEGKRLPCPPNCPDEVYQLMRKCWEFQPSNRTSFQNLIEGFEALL
JAK2 (recombinant purified GST-tagged catalytic domain), sequence (O60674 849-1124): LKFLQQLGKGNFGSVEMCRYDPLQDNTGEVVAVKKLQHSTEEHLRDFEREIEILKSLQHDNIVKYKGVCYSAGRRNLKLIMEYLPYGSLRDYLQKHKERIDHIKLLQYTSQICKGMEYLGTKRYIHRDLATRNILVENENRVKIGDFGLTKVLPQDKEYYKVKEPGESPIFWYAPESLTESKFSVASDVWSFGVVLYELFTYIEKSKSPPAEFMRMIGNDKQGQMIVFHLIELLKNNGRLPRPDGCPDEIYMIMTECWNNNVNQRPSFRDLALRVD

What is called IC50 is the concentration that inhibits the measured activity by half. Take `CC(C)(C)OC(=O)N1CC[C@](CC#N)(n2nc(Nc3ccc([C@@H](O)C(F)(F)F)cc3)c3c(=O)[nH]ccc32)[C@H](F)C1` (single isomer, unassigned) [Example 5-21, tert-butyl (3R,4R)-4-(cyanomethyl)-3-fluoro-4-[4-oxo-3-({4-[(1R or 1S)-2,2,2-trifluoro-1-hydroxyethyl]phenyl}amino)-4,5-dihydro-1H-pyrazolo[4,3-c]pyridin-1-yl]piperidine-1-carboxylate]: the results for the IC50 in experiment [1] and in experiment [2] were 150 pM and 140 pM, respectively.
For `CN1Cc2cc(Nc3nn([C@]4(CC#N)CC[C@@H](C(=O)OC(C)(C)C)OC4)c4cc[nH]c(=O)c34)ccc2S1(=O)=O` [Example 5-55, (2S,5S)-tert-butyl 5-(cyanomethyl)-5-(3-((2-methyl-1,1-dioxido-2,3-dihydrobenzo[d]isothiazol-5-yl)amino)-4-oxo-4,5-dihydro-1H-pyrazolo[4,3-c]pyridin-1-yl)tetrahydro-2H-pyran-2-carboxylate] the same measures were 50 pM and 120 pM.
Take `Cc1cc(Nc2nn([C@@]3(CC#N)CCCC[C@H]3F)c3cc[nH]c(=O)c23)ccc1C(=O)N1CCOCC1` [Example 5-151, 2-((1R,2R)-2-fluoro-1-(3-((3-methyl-4-(morpholine-4-carbonyl)phenyl)amino)-4-oxo-4,5-dihydro-1H-pyrazolo[4,3-c]pyridin-1-yl)cyclohexyl)acetonitrile]: the IC50 in experiment [1] turned out to be 90 pM; in experiment [2] it was 100 pM.
For `Cc1cc(Nc2nn([C@]3(CC#N)CC[C@@H](C(=O)OC(C)(C)C)OC3)c3cc[nH]c(=O)c23)ccc1C(=O)N1CCSC1C` (single isomer, unassigned) [Example 5-156, (2S,5S)-tert-butyl 5-(cyanomethyl)-5-(3-((3-methyl-4-((S or R)-2-methylthiazolidine-3-carbonyl)phenyl)amino)-4-oxo-4,5-dihydro-1H-pyrazolo[4,3-c]pyridin-1-yl)tetrahydro-2H-pyran-2-carboxylate] the same measures were 170 pM and 300 pM.
The corresponding values for `N#CCC1(n2nc(Nc3ccc([C@H](O)C(F)(F)F)cc3)c3c(=O)[nH]ccc32)CCN(c2cc(C(F)(F)F)ccn2)CC1` (single isomer, unassigned) [Example 16-3, (R or S)-2-(4-(4-Oxo-3-(4-(2,2,2-trifluoro-1-hydroxyethyl)phenylamino)-4,5-dihydropyrazolo[4,3-c]pyridin-1-yl)-1-(4-(trifluoromethyl)pyridin-2-yl)piperidin-4-yl)acetonitrile] are 1150 pM and 3820 pM.
For the compound `CC(C)(C)OC(=O)N1CCC(CC#N)(n2nc(Nc3cc(Cn4ccnn4)cc(Cn4nccn4)c3)c3c(=O)[nH]ccc32)CC1` [Example 5-64, tert-butyl 4-(3-(3-((1H-1,2,3-triazol-1-yl)methyl)-5-((2H-1,2,3-triazol-2-yl)methyl)phenylamino)-4-oxo-4,5-dihydropyrazolo [4,3-c]pyridin-1-yl)-4-(cyanomethyl)piperidine-1-carboxylate], the IC50 is 570 pM in experiment [1] and 460 pM in experiment [2].
With `CN(C)C(=O)[C@@H]1CC[C@@](CC#N)(n2nc(Nc3ccc(Cl)cc3)c3c(=O)[nH]ccc32)CO1` [Example 23, (2S,5S)-5-(3-((4-chlorophenyl)amino)-4-oxo-4,5-dihydro-1H-pyrazolo[4,3-c]pyridin-1-yl)-5-(cyanomethyl)-N,N-dimethyltetrahydro-2H-pyran-2-carboxamide], the IC50 came out at 230 pM in experiment [1] and 2500 pM in experiment [2].
As for `Cc1cc(Nc2nn([C@]3(CC#N)CCOC[C@@H]3F)c3cc[nH]c(=O)c23)ccc1C(=O)N1CCOCC1` (single isomer, unassigned) [Example 5-258, 2-((3R,4R or 3S,4S)-3-fluoro-4-(3-((3-methyl-4-(morpholine-4-carbonyl)phenyl)amino)-4-oxo-4,5-dihydro-1H-pyrazolo[4,3-c]pyridin-1-yl)tetrahydro-2H-pyran-4-yl)acetonitrile], the IC50 in experiment [1] came to 70 pM; in experiment [2] it was 80 pM.
Regarding `CC(C)(C)OC(=O)N1CCC(CC#N)(n2nc(Nc3ccc([C@@H](O)C(F)(F)F)cc3)c3c(=O)[nH]ccc32)CC1` (single isomer, unassigned) [Example 5-3, tert-butyl 4-(cyanomethyl)-4-[4-oxo-3-({4-[(1R or 1S)-2,2,2-trifluoro-1-hydroxyethyl]phenyl}amino)-4,5-dihydro-1H-pyrazolo[4,3-c]pyridin-1-yl]piperidine-1-carboxylate], the results for the IC50 in experiment [1] and in experiment [2] were 430 pM and 1110 pM, respectively.
As for `COC(=O)[C@@H]1CC[C@@](CC#N)(n2nc(Nc3ccc(S(C)(=O)=O)cc3)c3c(=O)[nH]ccc32)CO1` (racemic) [Example 5-32, (2S,5S and 2R,5R)-methyl 5-(cyanomethyl)-5-(3-((4-(methylsulfonyl)phenyl)amino)-4-oxo-4,5-dihydro-1H-pyrazolo[4,3-c]pyridin-1-yl)tetrahydro-2H-pyran-2-carboxylate], the IC50 in experiment [1] was 130 pM; in experiment [2], 870 pM.
`CCS(=O)(=O)c1ccc(Nc2nn(C3(CC#N)CCCC3)c3cc[nH]c(=O)c23)cc1` [Example 5-133, 2-(1-(3-((4-(ethylsulfonyl)phenyl)amino)-4-oxo-4,5-dihydro-1H-pyrazolo[4,3-c]pyridin-1-yl)cyclopentyl) acetonitrile]: the IC50 in experiment [1] worked out at 440 pM; in experiment [2], 1380 pM.
For `CC1CCN1S(=O)(=O)c1ccc(Nc2nn([C@]3(CC#N)CCCOC3)c3cc[nH]c(=O)c23)cc1` (single isomer, unassigned) [Example 5-109, [(3S)-3-{3-[(4-{[(2S or 2R)-2-methylazetidin-1-yl]sulfonyl}phenyl)amino]-4-oxo-4,5-dihydro-1H-pyrazolo[4,3-c]pyridin-1-yl}tetrahydro-2H-pyran-3-yl]acetonitrile] the same measures were 250 pM and 290 pM.
The corresponding values for `Cc1cc(C)cc(Nc2nn(C3(CC#N)CCN(C(=O)OC(C)(C)C)CC3)c3cc[nH]c(=O)c23)c1` [Example 5-61, tert-butyl 4-(cyanomethyl)-4-(3-(3,5-dimethylphenylamino)-4-oxo-4,5-dihydropyrazolo[4,3-c]pyridin-1-yl)piperidine-1-carboxylate] are 640 pM and 12700 pM.
For `Cc1cc(Nc2nn([C@]3(CC#N)CC[C@@H](C(=O)OC(C)(C)C)OC3)c3cc[nH]c(=O)c23)ccc1C(=O)N(C)CC(F)(F)F` [Example 20-15, (2S,5S)-tert-butyl 5-(cyanomethyl)-5-(3-((3-methyl-4-(methyl(2,2,2-trifluoroethyl)carbamoyl)phenyl)amino)-4-oxo-4,5-dihydro-1H-pyrazolo[4,3-c]pyridin-1-yl)tetrahydro-2H-pyran-2-carboxylate] the same measures were 190 pM and 510 pM.
On to `CC(C)(C)N1Cc2cc(Nc3nn([C@@]4(CC#N)CCOC[C@H]4F)c4cc[nH]c(=O)c34)ccc2S1(=O)=O` (single isomer, unassigned) [Example 5-255, 2-((3S,4S or 3R,4R)-4-(3-((2-(tert-butyl)-1,1-dioxido-2,3-dihydrobenzo[d]isothiazol-5-yl)amino)-4-oxo-4,5-dihydro-1H-pyrazolo[4,3-c]pyridin-1-yl)-3-fluorotetrahydro-2H-pyran-4-yl)acetonitrile], for which the results for the IC50 in experiment [1] and in experiment [2] were 140 pM and 3320 pM, respectively.
With `CC1(C)CCCN1S(=O)(=O)c1ccc(Nc2nn([C@]3(CC#N)CCCOC3)c3cc[nH]c(=O)c23)cc1` [Example 5-107, {(3S)-3-[3-({4-[(2,2-dimethylpyrrolidin-1-yl)sulfonyl]phenyl}amino)-4-oxo-4,5-dihydro-1H-pyrazolo[4,3-c]pyridin-1-yl]tetrahydro-2H-pyran-3-yl} acetonitrile], the IC50 in experiment [1] was determined as 200 pM; in experiment [2], 330 pM.
Turning to `Cc1cc(Nc2nn([C@]3(CC#N)CC[C@@H](C(=O)OC(C)(C)C)OC3)c3cc[nH]c(=O)c23)ccc1C(=O)N1CCOCC1C` (single isomer, unassigned) [Example 20-9, (2S,5S)-tert-butyl 5-(cyanomethyl)-5-(3-((3-methyl-4-((S or R)-3-methylmorpholine-4-carbonyl)phenyl)amino)-4-oxo-4,5-dihydro-1H-pyrazolo[4,3-c]pyridin-1-yl)tetrahydro-2H-pyran-2-carboxylate], the IC50 was found to be 140 pM in experiment [1] and 170 pM in experiment [2].
As for `N#CC[C@@]1(n2nc(Nc3ccc(Cl)cc3)c3c(=O)[nH]ccc32)CCOC1` (single isomer, unassigned) [Example 5-241, [(3R or 3S)-3-{3-[(4-chlorophenyl)amino]-4-oxo-4,5-dihydro-1H-pyrazolo[4,3-c]pyridin-1-yl}tetrahydrofuran-3-yl]acetonitrile], the IC50 in experiment [1] worked out at 2620 pM; in experiment [2] it was 23400 pM.
In the case of `CC(C)(O)[C@@H]1CC[C@@](CC#N)(n2nc(Nc3ccc(Cl)cc3)c3c(=O)[nH]ccc32)CO1` [Example 24, 2-((3S,6S)-3-(3-((4-chlorophenyl)amino)-4-oxo-4,5-dihydro-1H-pyrazolo[4,3-c]pyridin-1-yl)-6-(2-hydroxypropan-2-yl)tetrahydro-2H-pyran-3-yl)acetonitrile], the values for the IC50 in experiment [1] and in experiment [2] were 340 pM and 1130 pM, respectively.
For `CC(C)S(=O)(=O)c1ccc(Nc2nn([C@]3(CC#N)CC[C@@H](C(=O)OC(C)(C)C)OC3)c3cc[nH]c(=O)c23)cc1` [Example 5-237, (2S,5S)-tert-butyl 5-(cyanomethyl)-5-(3-((4-(isopropylsulfonyl)phenyl)amino)-4-oxo-4,5-dihydro-1H-pyrazolo[4,3-c]pyridin-1-yl)tetrahydro-2H-pyran-2-carboxylate] the same measures were 150 pM and 280 pM.
